Measured values taken from publication PMC6052247, “Structurally Diverse Polyketides From the Mangrove-Derived Fungus Diaporthe sp. SCSIO 41011 With Their Anti-influenza A Virus Activities” (Frontiers in Chemistry, 2018).

Test system: A/Puerto Rico/8/34 H274Y (H1N1)
Format: cell-based, Influenza A virus

Compound | IC50 [µM]
CCCCCCCc1cc(=O)c2c(CC(=O)OCC)cc(O)cc2o1 [Compound 15, pestalotiopsone B] | 2.56 ± 0.32
5-chloroisorotiorin | 2.52 ± 0.21
CCCCCc1cc(=O)c2c(CC(=O)OC)cc(O)cc2o1 [Compound 14, pestalotiopsone F] | 21.8 ± 7.96
